The text below walks through data of patent publication US20200407370A1, “PEPTIDYLARGININE DEIMINASE INHIBITOR AND USE THEREOF” (Nanjing Transthera Biosciences Co., Ltd., priority 2018, published 2020).

Format in all cases: in vitro ADME
The nature of data set [1]: Liver microsomal stability in human. As to conditions: human liver microsomes, 0.5 mg protein/mL, 1 μM compound, 37° C. As to the method: (§1) Experimental Example 2: Evaluation on Liver Microsomal Stability of the Compound Disclosed Herein in Human/Canine
(§2) An appropriate amount of the compound was precisely weighed and dissolved in DMSO to prepare a 5.0 mM stock solution. 5.0 mM stock solution was diluted to 1.0 mM with DMSO, and then diluted with water to 10 μM, serving as a compound working solution for later use (DMSO content in the reaction system: 0.1% v/v).
(§3) • (1) The liver microsomes (20 mg protein/mL) were taken from a −80° C. refrigerator, pre-incubated on a 37° C. water bath thermostatic oscillator for 3 min, and thawed for use. • (2) A mixed incubation system solution (without compounds or β-NADPH) was prepared according to the proportion of “composition of the incubation system” described above and pre-incubated on a 37° C. water bath thermostatic oscillator for 2 min. • (3) Control group (without β-NADPH): 30 μL of water and 30 μL of compound working solution (10 μM) were added to 240 μL of the mixed incubation system solution in step (2), and the mixture was vortexed for 30 s and mixed. The total volume of the mixture was 300 μL. The sample was duplicated. The reaction solution was placed on a 37° C. water bath thermostatic oscillator for incubation, and timing was started. Samples were collected at 0 min and 60 min. • (4) Sample group: 70 μL of β-NADPH solution (10 mM) and 70 μL of compound working solution (10 μM) were added to 560 μL of the mixed incubation system solution in step (2), and the total volume of the mixture was 700 μL. The mixture was vortexed for 30 s and mixed. The sample was duplicated. The reaction solution was placed on a 37° C. water bath thermostatic oscillator for incubation, and timing was started. Samples were collected at 0 min, 5 min, 10 min, 20 min, 30 min and 60 min after timing. • (5) The reaction solution was vortexed for 3 min, and centrifuged at 12,000 rpm for 5 min. • (6) 50 μL of the supernatant was added to 150 μL of water, and the resulting solution was vortexed and mixed before LC/MS/MS analysis.
(§4) The half-life (t1/2) and clearance (Cl) were calculated using the following first-order kinetic formula:
(§5) Vd=1/protein content in liver microsomes
(§6) Note: k denotes the slope of the logarithm of the remaining amount of a compound vs. time, Vd denotes apparent volume of distribution, C0 denotes drug concentration at 0 h, Ct denotes drug concentration at time t, t denotes time, e denotes natural number, and Clint denotes intrinsic clearance.
Background: Liver microsomes are a subcellular fraction often used to study metabolism.

Data set [2] in a line: Liver microsomal stability in rat. As to conditions: rat liver microsomes, 0.5 mg protein/mL, 1 μM compound, 37° C. How it is done:
(§7) Experimental Example 4:Evaluation on Liver Microsomal Stability of the Compound Disclosed Herein in Mouse/Rat
(§8) Objective: To evaluate the liver microsomal stability of the compound disclosed herein in mouse/rat
as §2
(§9) An appropriate amount of the compound was precisely weighed and dissolved in methanol to prepare a 5.0 mM stock solution. 5.0 mM stock solution was diluted to 1.0 mM with methanol, and then diluted with 10% methanol-water (v/v) solution to 10 μM, serving as a compound working solution for later use (methanol content in the reaction system: 1.1% v/v).
(§10) • (1) The liver microsomes (20 mg protein/mL) were taken from a −80° C. refrigerator, pre-incubated on a 37° C. water bath thermostatic oscillator for 3 min, and thawed for use. • (2) A mixed incubation system solution (without compounds or […]) was prepared according to the proportion of “composition of the incubation system” described above and pre-incubated on a 37° C. water bath thermostatic oscillator for 2 min. • (3) Control group (without β-NADPH): 30 μL of water and 30 μL of compound working solution (10 μM) were added to 240 μL of the mixed incubation system solution in step (2), and the mixture was vortexed for 30 s and mixed. The total volume of the mixture was 300 μL. The sample was duplicated. The reaction solution was placed on a 37° C. water bath thermostatic oscillator for incubation, and timing was started. Samples were collected at 0 min and 60 min. • (4) Sample group: 70 μL of β-NADPH solution (10 mM) and 70 μL of compound working solution (10 μM) were added to 560 μL of the mixed incubation system solution in step (2), and the total volume of the mixture was 700 μL. The mixture was vortexed for 30 s and mixed. The sample was duplicated. The reaction solution was placed on a 37° C. water bath thermostatic oscillator for incubation, and timing was started. Samples were collected at 0 min, 5 min, 10 min, 20 min, 30 min and 60 min after timing. • (5) The reaction solution was vortexed for 3 min, and centrifuged at 12,000 rpm for 5 min. • (6) 50 μL of the supernatant was added to 150 μL of water, and the resulting solution was vortexed and mixed before LC/MS/MS analysis.
as §4, §5, §6

A short description of data set [3]: Liver microsomal stability in canine. As to conditions: dog; canine liver microsomes, 0.5 mg protein/mL, 1 μM compound, 37° C. As to the method:
as §1, §2, §3, §4, §5, §6

The nature of data set [4]: Liver microsomal stability in mouse. As to conditions: mouse liver microsomes, 0.5 mg protein/mL, 1 μM compound, 37° C. As to the method:
as §7, §8, §2, §9, §10, §4, §5, §6

Usually half-life stands for the time in which the quantity being followed falls by half. Higher therefore signals slow loss. One may read the microsomal CLint as the rate of metabolic loss divided by the concentration. A low value points to slow turnover. In the case of `CCn1c(-c2nc3cc(C(=O)N4CCC[C@@H](N)C4)cc(OC)c3n2C)cc2ccsc21` [Compound 3, (R)-(3-aminopiperidin-1-yl)(2-(6-ethyl-6H-thieno[2,3-b]pyrrol-5-yl)-7-methoxy-1-methyl-1H-benzo[d]imidazol-5-yl)methanone], the half-life at 1 μM in data set [1] was 4.62 h; in data set [2], 3.98 h. Also, the microsomal CLint at 1 μM in data set [1] amounted to 5 µL/min/mg; in data set [2], 5.8 µL/min/mg.

In data set [3], `CCn1c(-c2nc3cc(C(=O)N4CCC[C@@H](N)C4)cc(OC)c3n2C)cc2cc(C)sc21` [Compound 9, (R)-(3-aminopiperidin-1-yl)(2-(6-ethyl-2-methyl-6H-thieno[2,3-b]pyrrol-5-yl)-7-methoxy-1-methyl-1H-benzo[d]imidazol-5-yl)methanone] came in with a half-life at 1 μM of 23.1 h and a microsomal CLint at 1 μM of 1 µL/min/mg. Also, the t1/2 result in data set [2] was “→∞”.

In data set [1], `COc1cc(C(=O)N2CCC[C@@H](N)C2)cc2nc(-c3cc4ccsc4n3CC3CC3)n(C)c12` [Compound 18, (R)-(3-aminopiperidin-1-yl)(2-(6-(cyclopropylmethyl)-6H-thieno[2,3-b]pyrrol-5-yl)-7-methoxy-1-methyl-1H-benzo[d]imidazol-5-yl)methanone] came in with a half-life at 1 μM of 3.5 h and a microsomal CLint at 1 μM of 6.6 µL/min/mg. In data set [4], the half-life at 1 μM came out at 4.13 h and the microsomal CLint at 1 μM came to 5.6 µL/min/mg.

In data set [4], `COc1cc(C(=O)N2CCC[C@@H](N)C2)cc2nc(-c3cc4ccsc4n3CC(C)C)n(C)c12` [Compound 20, (R)-(3-aminopiperidin-1-yl)(2-(6-isobutyl-6H-thieno[2,3-b]pyrrol-5-yl)-7-methoxy-1-methyl-1H-benzo[d]imidazol-5-yl)methanone] yielded a half-life at 1 μM of 11.6 h and a microsomal CLint at 1 μM of 2 µL/min/mg. In data set [2], this molecule showed a half-life at 1 μM of 5.25 h and a microsomal CLint at 1 μM of 4.4 µL/min/mg.

In data set [2], `COc1cc(C(=O)N2CCC[C@@H](N)C2)cc2nc(-c3cc4ccsc4n3CC(F)(F)F)n(C)c12` [Compound 21, (R)-(3-aminopiperidin-1-yl)(7-methoxy-1-methyl-2-(6-(2,2,2-trifluoroethyl)-6H-thieno[2,3-b]pyrrol-5-yl)-1H-benzo[d]imidazol-5-yl)methanone] registered a half-life at 1 μM of 2.97 h and a microsomal CLint at 1 μM of 7.8 µL/min/mg.

In data set [4], `COc1cc(C(=O)N2CCC[C@@H](N)C2)cc2nc(-c3cc4ccsc4n3CC3CCC3)n(C)c12` [Compound 22, (R)-(3-aminopiperidin-1-yl)(2-(6-(cyclobutylmethyl)-6H-thieno[2,3-b]pyrrol-5-yl)-7-methoxy-1-methyl-1H-benzo[d]imidazol-5-yl)methanone] showed a half-life at 1 μM of 2.68 h and a microsomal CLint at 1 μM of 8.6 µL/min/mg.

Take `COc1cc(C(=O)N2CCC[C@@H](N)C2)cc2nc(-c3cc4cc(C)sc4n3CC3CC3)n(C)c12` [Compound 23, (R)-(3-aminopiperidin-1-yl)(2-(6-(cyclopropylmethyl)-2-methyl-6H-thieno[2,3-b]pyrrol-5-yl)-7-methoxy-1-methyl-1H-benzo[d]imidazol-5-yl)methanone]: in data set [4], the half-life at 1 μM amounted to 3.98 h and the microsomal CLint at 1 μM is 5.8 µL/min/mg.
